Where two headings read alike, the source gives them in different places.
Legend:
[1] = molecular target: T1, MTH1 (Homo sapiens, UniProt P36639); details: pH 7.5 but methods buffer pH 8.0, 10 mM Mg acetate, unit assumed
T1 construct: gene NUDT1

[2] = molecular target: T2, NUDT18 (Homo sapiens, UniProt Q6ZVK8); assay: phosphate release, malachite green assay; assay type: biochemical; details: 50 uM nucleotide, 25 nM enzyme, 22 C, 30 min, pH 8.0, 10 mM Mg acetate; which of 8-oxo-dGTP or 8-oxo-dGDP belongs to NUDT18 is not spelt out
T2 construct: recombinant, cDNA codon-optimized for E. coli in pET28a(+); His-tag removed by TEV or thrombin
T2 sequence (Q6ZVK8 1-323): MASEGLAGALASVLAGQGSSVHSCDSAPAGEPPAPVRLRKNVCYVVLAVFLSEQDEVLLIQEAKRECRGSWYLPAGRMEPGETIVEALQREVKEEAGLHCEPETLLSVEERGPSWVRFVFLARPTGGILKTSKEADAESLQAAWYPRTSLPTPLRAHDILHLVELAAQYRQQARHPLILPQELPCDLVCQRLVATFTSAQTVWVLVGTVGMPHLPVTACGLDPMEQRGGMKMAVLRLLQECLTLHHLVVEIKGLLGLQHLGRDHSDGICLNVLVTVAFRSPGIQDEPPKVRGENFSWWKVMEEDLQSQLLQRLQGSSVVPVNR

[3] = molecular target: the molecule itself; assay: SEC; 10/300 GL S75 column, 20 mM HEPES pH 7.5, 300 mM NaCl, 10% glycerol, 0.5 mM TCEP; 0.24 mg NUDT15 in 500 ul

`Nc1nc2c([nH]c(=O)n2[C@H]2C[C@H](O)[C@@H](COP(=O)(O)OP(=O)(O)OP(=O)(O)O)O2)c(=O)[nH]1` [8-oxo-dGTP] showed a Km ([1]; 0-100 uM 8-oxo-dGTP, 0.25 nM enzyme) of 10.2 ± 0.8 µM.

`Nc1nc2c(ncn2[C@H]2C[C@H](O)[C@@H](COP(=O)(O)OP(=O)(O)OP(=O)(O)O)O2)c(=O)[nH]1` [dGTP, 2′-Deoxyguanosine-5′-triphosphate] gave a Km ([1]; 0-400 uM dGTP, 2 nM enzyme) of 110 ± 35 µM.

For `Nc1nc2c([nH]c(=O)n2[C@H]2C[C@H](O)[C@@H](COP(=O)(O)OP(=O)(O)O)O2)c(=O)[nH]1` [8-oxo-dGDP], the “phosphate release, malachite green assay” value [2] was “NUDT15 and NUDT18 have the ability to hydrolyse 8-oxo-dGTP or 8-oxo-dGDP in biochemical assays”.

B1: NUDT15 (enzyme, human, UniProt Q9NV35 1-164, looked up)
chain: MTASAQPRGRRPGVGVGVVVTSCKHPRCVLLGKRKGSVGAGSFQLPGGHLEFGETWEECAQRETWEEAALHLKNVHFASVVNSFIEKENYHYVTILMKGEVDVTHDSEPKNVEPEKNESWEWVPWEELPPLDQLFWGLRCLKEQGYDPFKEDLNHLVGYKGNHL
notes: NUDT15 (MTH2), human, full length; expression construct pNIC28hNUDT15 from the Structural Genome Consortium; The His-tag was removed by TEV protease or thrombin; Crystals grew in the presence of alpha-chymotrypsin, so the chain in the crystal may be shorter than full length; also called MTH2; MutT homologue 2; source: E. coli BL21 (DE3) T1R pRARE2, purified (HisTrap HP, gel filtration Superdex 75)
B1 was tested, and the “stoichiometry N” value [3] was 2.

Reference: paper PMC4532830, “Crystal structure, biochemical and cellular activities demonstrate separate functions of MTH1 and MTH2” (Nature Communications, 2015)
